From ChEMBL document CHEMBL5291721, “A preclinical secondary pharmacology resource illuminates target-adverse drug reaction associations of marketed drugs” (Nat Commun, 2023) come the findings set out here.

Bounds are passed on as bounds.

In test [1] the target is 5-hydroxytryptamine receptor 2A (Homo sapiens, UniProt P28223). It is filed as functional, cell-based.
Test [2] concerns the target T1, Muscarinic acetylcholine receptor M1 (Homo sapiens, UniProt P11229).
T1 sequence (P11229 whole entry): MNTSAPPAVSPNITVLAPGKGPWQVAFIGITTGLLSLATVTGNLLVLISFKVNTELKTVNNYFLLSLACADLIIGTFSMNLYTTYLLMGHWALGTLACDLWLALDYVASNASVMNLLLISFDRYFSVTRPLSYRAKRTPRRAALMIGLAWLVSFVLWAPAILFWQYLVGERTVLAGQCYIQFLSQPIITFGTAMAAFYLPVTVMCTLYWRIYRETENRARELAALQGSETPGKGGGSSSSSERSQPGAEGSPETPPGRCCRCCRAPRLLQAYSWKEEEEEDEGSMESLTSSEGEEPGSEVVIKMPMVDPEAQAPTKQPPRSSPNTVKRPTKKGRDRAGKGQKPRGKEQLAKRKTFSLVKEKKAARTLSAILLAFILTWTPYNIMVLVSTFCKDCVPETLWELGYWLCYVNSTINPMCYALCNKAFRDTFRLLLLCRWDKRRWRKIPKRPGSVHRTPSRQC
The format is functional.

A further test concerns the target T2, Progesterone receptor (Homo sapiens, UniProt P06401).
T2 sequence (P06401 whole entry): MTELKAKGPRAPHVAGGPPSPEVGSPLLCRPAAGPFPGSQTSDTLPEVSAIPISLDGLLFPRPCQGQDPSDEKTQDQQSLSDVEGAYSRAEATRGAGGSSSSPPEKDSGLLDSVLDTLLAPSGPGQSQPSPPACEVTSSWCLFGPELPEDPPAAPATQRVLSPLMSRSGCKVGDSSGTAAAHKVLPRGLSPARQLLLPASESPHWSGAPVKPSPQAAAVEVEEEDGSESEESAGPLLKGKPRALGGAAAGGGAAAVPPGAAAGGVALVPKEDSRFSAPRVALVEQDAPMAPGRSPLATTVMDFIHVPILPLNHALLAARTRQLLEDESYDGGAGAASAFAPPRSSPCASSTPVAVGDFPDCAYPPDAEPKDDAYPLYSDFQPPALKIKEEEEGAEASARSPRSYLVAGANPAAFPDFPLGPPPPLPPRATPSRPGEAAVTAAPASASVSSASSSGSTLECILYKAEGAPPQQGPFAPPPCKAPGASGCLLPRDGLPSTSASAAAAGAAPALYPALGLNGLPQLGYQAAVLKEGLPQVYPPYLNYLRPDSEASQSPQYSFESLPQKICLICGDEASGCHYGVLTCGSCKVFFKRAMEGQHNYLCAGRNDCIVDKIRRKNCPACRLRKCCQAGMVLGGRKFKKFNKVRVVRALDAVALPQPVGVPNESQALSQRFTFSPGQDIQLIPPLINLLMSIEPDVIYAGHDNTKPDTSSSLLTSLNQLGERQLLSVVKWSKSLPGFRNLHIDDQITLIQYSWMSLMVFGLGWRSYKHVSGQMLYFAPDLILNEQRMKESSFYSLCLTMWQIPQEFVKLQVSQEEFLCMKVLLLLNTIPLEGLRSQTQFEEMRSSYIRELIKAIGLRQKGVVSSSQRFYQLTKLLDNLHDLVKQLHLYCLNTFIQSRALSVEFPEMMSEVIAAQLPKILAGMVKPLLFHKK
It is filed as functional.

Test [3] concerns the target T3, Alpha-1A adrenergic receptor (Homo sapiens, UniProt P35348).
T3 sequence (P35348 whole entry): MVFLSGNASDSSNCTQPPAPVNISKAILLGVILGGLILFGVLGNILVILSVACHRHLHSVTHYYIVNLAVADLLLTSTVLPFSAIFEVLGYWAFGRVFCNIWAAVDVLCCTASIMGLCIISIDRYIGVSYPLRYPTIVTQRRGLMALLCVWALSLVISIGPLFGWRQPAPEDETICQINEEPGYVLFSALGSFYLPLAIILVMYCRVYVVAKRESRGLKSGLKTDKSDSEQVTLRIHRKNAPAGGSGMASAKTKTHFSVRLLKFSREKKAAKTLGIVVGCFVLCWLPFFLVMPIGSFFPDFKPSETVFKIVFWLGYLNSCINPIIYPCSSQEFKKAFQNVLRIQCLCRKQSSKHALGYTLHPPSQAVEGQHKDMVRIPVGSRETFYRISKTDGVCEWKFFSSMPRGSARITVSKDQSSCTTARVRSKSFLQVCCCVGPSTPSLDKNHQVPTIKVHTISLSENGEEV
It is filed as functional, cell-based.

The target of a further test is T4, B2 bradykinin receptor (Homo sapiens, UniProt P30411).
T4 sequence (P30411 whole entry): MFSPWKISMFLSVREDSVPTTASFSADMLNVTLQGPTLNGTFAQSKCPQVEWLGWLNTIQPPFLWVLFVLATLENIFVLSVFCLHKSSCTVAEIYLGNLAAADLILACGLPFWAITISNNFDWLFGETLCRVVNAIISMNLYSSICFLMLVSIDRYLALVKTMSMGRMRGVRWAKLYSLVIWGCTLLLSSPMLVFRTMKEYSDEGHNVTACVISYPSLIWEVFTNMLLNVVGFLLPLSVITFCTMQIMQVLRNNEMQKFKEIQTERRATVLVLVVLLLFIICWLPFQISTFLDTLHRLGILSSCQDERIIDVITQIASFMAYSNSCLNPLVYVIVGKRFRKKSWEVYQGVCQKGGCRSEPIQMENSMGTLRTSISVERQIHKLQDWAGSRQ

Another test concerns the target Histamine H1 receptor (Homo sapiens, UniProt P35367).
The target of test [4] is T5, Alpha-2A adrenergic receptor (Homo sapiens, UniProt P08913).
T5 sequence (P08913 whole entry): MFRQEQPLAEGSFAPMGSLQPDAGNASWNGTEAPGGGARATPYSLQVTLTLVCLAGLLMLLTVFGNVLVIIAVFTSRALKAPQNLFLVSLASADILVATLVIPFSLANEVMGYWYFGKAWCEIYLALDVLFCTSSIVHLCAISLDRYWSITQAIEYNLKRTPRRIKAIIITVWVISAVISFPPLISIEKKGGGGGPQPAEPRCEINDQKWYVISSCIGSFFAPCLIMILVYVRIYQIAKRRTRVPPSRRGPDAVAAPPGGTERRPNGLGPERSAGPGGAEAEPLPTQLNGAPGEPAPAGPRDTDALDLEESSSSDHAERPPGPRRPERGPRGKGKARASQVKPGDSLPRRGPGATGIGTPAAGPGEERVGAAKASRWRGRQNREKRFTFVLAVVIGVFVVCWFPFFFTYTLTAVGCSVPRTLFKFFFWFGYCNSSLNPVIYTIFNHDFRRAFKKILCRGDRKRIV

The target of the next test is Acetylcholinesterase (Homo sapiens, UniProt P22303). The format is functional.
The target of test [5] is Vascular endothelial growth factor receptor 2 (Homo sapiens, UniProt P35968). The format is functional.
Further: assay procedure not described here.

Histamine H1 receptor, sequence (P35367 whole entry): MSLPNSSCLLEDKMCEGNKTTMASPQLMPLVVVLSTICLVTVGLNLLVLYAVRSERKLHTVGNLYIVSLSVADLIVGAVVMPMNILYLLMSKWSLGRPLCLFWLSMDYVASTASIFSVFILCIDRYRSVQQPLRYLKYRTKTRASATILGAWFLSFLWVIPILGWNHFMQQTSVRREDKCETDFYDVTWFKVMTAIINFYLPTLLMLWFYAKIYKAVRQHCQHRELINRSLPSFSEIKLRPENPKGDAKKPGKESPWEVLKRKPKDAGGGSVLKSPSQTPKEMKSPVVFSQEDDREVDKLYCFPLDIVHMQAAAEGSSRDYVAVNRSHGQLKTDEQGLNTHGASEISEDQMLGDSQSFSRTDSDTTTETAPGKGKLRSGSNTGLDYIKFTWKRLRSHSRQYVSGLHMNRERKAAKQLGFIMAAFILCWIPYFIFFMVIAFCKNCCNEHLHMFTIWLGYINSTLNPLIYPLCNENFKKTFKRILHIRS
5-hydroxytryptamine receptor 2A, sequence (P28223 whole entry): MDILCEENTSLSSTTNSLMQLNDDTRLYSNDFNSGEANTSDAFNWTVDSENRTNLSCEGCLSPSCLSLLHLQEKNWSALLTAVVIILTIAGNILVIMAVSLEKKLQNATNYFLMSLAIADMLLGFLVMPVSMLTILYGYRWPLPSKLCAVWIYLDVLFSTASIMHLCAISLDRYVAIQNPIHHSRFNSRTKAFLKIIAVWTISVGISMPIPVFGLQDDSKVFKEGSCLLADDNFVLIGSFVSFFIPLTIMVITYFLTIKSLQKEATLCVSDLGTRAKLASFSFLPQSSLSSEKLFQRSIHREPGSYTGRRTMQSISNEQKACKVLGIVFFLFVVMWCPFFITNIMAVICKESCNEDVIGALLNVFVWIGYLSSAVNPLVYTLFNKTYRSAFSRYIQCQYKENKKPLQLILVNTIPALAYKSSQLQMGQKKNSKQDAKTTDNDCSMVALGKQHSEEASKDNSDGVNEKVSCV
Acetylcholinesterase, sequence (P22303 whole entry): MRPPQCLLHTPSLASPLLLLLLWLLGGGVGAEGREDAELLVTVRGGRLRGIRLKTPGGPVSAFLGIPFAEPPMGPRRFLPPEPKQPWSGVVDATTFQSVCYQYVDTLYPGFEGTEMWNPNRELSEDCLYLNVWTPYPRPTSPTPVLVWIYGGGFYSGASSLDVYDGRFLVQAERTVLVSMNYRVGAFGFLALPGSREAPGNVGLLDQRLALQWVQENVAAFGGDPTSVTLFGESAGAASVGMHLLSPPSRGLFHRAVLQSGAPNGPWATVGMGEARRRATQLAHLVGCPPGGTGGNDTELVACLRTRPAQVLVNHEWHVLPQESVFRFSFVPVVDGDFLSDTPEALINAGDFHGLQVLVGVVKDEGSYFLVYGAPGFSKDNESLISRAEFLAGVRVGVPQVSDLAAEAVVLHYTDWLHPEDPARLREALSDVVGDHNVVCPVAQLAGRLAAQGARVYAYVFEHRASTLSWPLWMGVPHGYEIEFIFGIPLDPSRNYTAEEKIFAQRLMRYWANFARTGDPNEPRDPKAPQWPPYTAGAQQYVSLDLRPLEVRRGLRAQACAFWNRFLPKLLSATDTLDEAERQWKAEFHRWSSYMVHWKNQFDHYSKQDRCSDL
Vascular endothelial growth factor receptor 2, sequence (P35968 whole entry): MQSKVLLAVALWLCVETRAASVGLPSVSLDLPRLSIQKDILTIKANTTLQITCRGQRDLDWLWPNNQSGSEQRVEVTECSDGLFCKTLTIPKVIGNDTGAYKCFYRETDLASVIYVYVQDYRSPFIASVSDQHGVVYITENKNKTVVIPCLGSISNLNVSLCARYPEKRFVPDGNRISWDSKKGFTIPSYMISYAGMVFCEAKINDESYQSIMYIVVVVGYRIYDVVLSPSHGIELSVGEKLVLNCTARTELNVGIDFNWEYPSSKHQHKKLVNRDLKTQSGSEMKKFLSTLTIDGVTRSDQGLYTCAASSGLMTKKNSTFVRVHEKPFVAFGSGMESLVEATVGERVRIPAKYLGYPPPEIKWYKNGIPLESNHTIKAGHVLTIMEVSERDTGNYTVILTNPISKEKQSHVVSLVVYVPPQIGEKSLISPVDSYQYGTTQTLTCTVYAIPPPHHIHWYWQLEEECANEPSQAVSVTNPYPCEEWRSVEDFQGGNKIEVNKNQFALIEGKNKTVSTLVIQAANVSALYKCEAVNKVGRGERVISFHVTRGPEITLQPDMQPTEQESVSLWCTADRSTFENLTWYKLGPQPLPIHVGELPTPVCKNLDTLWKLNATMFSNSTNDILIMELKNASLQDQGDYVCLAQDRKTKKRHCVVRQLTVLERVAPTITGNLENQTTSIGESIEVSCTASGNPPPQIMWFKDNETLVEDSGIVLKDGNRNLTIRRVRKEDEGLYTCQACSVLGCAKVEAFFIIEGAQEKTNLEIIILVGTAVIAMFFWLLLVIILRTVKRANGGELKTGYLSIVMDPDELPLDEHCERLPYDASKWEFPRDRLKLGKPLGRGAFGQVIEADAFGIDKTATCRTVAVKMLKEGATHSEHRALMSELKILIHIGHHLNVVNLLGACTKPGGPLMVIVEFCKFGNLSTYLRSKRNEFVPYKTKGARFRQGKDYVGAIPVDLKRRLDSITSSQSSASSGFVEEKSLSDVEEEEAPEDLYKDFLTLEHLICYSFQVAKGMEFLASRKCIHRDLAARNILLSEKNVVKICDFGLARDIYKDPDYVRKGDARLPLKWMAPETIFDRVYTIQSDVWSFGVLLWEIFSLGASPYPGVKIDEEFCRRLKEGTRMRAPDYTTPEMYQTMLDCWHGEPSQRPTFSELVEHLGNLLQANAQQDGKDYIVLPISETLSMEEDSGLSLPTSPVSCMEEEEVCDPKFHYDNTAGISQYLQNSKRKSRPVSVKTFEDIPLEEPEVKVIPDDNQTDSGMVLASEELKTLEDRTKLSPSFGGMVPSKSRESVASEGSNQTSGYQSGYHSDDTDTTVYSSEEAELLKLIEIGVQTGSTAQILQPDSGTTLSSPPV

Turning to `Cn1nnc2c(C(N)=O)ncn2c1=O` [TEMOZOLOMIDE], the AC50 (in test [1]; in test [2]; at Progesterone receptor; in test [3]; on B2 bradykinin receptor; at Histamine H1 receptor) was more than 30 µM throughout.
In the case of `CC(=O)NCCCS(=O)(=O)O` [ACAMPROSATE], the half-maximal activity concentration (AC50) (in test [1]; in [2]; at Progesterone receptor; in [3]; on B2 bradykinin receptor; on Histamine H1 receptor) was more than 30 µM each time.
For `Cc1nc([N+](=O)[O-])cn1-c1ccc([N+](=O)[O-])cc1` [NITREFAZOLE], the AC50 (in test [1]; in test [2]; on Progesterone receptor; in test [3]; on B2 bradykinin receptor; at Histamine H1 receptor) was more than 30 µM throughout.
As for `CN1C(C(=O)Nc2ccccn2)=C(O)c2sc(Cl)cc2S1(=O)=O` [LORNOXICAM], the AC50 in [1] is more than 30 µM; in [2], more than 10 µM; in test [3] it was more than 30 µM; on B2 bradykinin receptor, more than 30 µM; at Histamine H1 receptor it was more than 10 µM.
For `CNC(=O)c1ccccc1Sc1ccc2c(/C=C/c3ccccn3)n[nH]c2c1` [AXITINIB], the AC50 (in [1]; in test [2]; on Progesterone receptor; in test [3]; at Histamine H1 receptor) was more than 30 µM in each case.
For the compound `Nc1nc(NC2CC2)c2ncn([C@H]3C=C[C@@H](CO)C3)c2n1` [ABACAVIR], the AC50 (in test [1]; in [2]; on Progesterone receptor; in [3]; at B2 bradykinin receptor; at Histamine H1 receptor) was more than 30 µM throughout.
Turning to `CNC1Cc2ccccc2N(C)c2ccccc21` (stereo unspecified) [METAPRAMINE], the AC50 in test [1] is 14 µM; in test [2], more than 30 µM; on Progesterone receptor, more than 30 µM; in test [3], more than 30 µM; at Histamine H1 receptor, 0.34 µM.
As for `O=C(Cc1ccc(-c2ccccc2)cc1)Nc1ccccn1` [DIFENPIRAMIDE], the AC50 (in [1]; in test [2]; in [3]; in [4]; on Histamine H1 receptor; at Acetylcholinesterase) was more than 30 µM in each case.
As to `COCCCN1CCC(NC(=O)c2cc(Cl)c(N)c3c2OCC3)CC1` [PRUCALOPRIDE], the AC50 (in [1]; in [2]; on Progesterone receptor; in [3]; in test [4]; at Histamine H1 receptor) was more than 30 µM in each case. The same compound yielded an AC50 at Acetylcholinesterase of 26.7 µM.
In the case of `COc1cc(NC(C)CCCN)c2ncccc2c1` (stereo unspecified) [PRIMAQUINE], the AC50 on Progesterone receptor is 20 µM; at B2 bradykinin receptor, more than 30 µM; in [5], more than 30 µM.
In the case of `Cc1c(C(=O)NN2CCCCC2)nn(-c2ccc(Cl)cc2Cl)c1-c1ccc(Cl)cc1` [RIMONABANT], the AC50 in test [1] is 3.7 µM; in test [2], more than 30 µM; at Progesterone receptor it was more than 30 µM; in [3], more than 30 µM; at B2 bradykinin receptor, more than 30 µM; at Histamine H1 receptor it was 22 µM.
For `COc1ccc(CC(C)(C)NC[C@H](O)c2cc(O)cc3c2OCC(=O)N3)cc1` [OLODATEROL], the AC50 is 12.8 µM in test [1]; more than 30 µM in test [2]; more than 30 µM at Progesterone receptor; more than 30 µM in [3]; more than 30 µM on Histamine H1 receptor.
For the compound `CCCCN1C[C@H](O)[C@@H](O)[C@H](O)[C@H]1CO`, the AC50 (in test [1]; in test [2]; on Progesterone receptor; in test [3]; on B2 bradykinin receptor; on Histamine H1 receptor) was more than 30 µM each time.
As for `Nc1ccn([C@H]2CC[C@@H](CO)O2)c(=O)n1` [ZALCITABINE], the AC50 in test [1] was more than 10 µM; in [2], more than 10 µM; in test [3] it was more than 30 µM; on B2 bradykinin receptor, more than 10 µM; on Histamine H1 receptor it was more than 10 µM.
On to `COc1cc2nc(N(C)CCCNC(=O)C3CCCO3)nc(N)c2cc1OC` (stereo unspecified) [ALFUZOSIN], for which the AC50 (in test [1]; in test [2]; at Progesterone receptor; at B2 bradykinin receptor; on Histamine H1 receptor) was more than 30 µM throughout.
In the case of `O=C(O[C@H]1C[C@H]2CC[C@@H](C1)[N+]21CCCC1)C(O)(c1ccccc1)c1ccccc1` [TROSPIUM], the AC50 is more than 30 µM in test [1]; 0.028 µM in test [2]; more than 30 µM at Progesterone receptor; more than 30 µM in test [3]; more than 30 µM at B2 bradykinin receptor; 11 µM on Histamine H1 receptor.
On to `COc1ccccc1OCC(O)CN1CCN(CC(=O)Nc2c(C)cccc2C)CC1` (stereo unspecified) [RANOLAZINE], for which the AC50 (in [1]; in test [2]; on Progesterone receptor; in test [3]; at B2 bradykinin receptor; on Histamine H1 receptor) was more than 30 µM each time.
In the case of `c1cnc(N2CCN(Cc3ccc4c(c3)OCO4)CC2)nc1` [PIRIBEDIL], the AC50 (in test [1]; in [2]; at Progesterone receptor; in test [3]; on Histamine H1 receptor) was more than 30 µM in each case.
`CC1(C)NC(=O)N(c2ccc([N+](=O)[O-])c(C(F)(F)F)c2)C1=O` [NILUTAMIDE]: the AC50 (in [1]; in test [2]; on Progesterone receptor; on B2 bradykinin receptor; in test [4]; on Histamine H1 receptor) was more than 30 µM in each case. The same compound gave an AC50 at Acetylcholinesterase of more than 30 µM.

By AC50 is commonly meant the concentration giving half of the maximal activity seen. High values mean activity only at high concentration, low ones activity at low concentration.
